Here are results for 27 compounds from patent US20240246932A1 (Merck Sharp & Dohme LLC, priority 2021, published 2024).

For this assay, the target named is human NaV 1.8 channels stably expressed in HEK 293 cells (Homo sapiens (Human), UniProt Q9Y5Y9). As to the kind of experiment: Nav1.8 Qube automated patch-clamp assay. It counts as cell-based. To be noted: human NaV1.8 in HEK 293 cells, whole-cell voltage clamp, room temperature; read-out: IC50 values (nM) for Examples in the Nav1.8 Qube Assay. The method, boiled down: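 Whole-cell voltage clamp at room temperature on HEK293 cells; from −90 mV, a 10 s 1 Hz train of 20 ms pulses to 10 mV (repolarising to −67 mV) was applied. Peak currents at pulses 1 and 10 gave resting- and inactivated-state inhibition; IC50 fitted by Hill equation. Internal CsF/CsCl buffer.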
human NaV 1.8 channels stably expressed in HEK 293 cells, sequence (Q9Y5Y9 whole entry): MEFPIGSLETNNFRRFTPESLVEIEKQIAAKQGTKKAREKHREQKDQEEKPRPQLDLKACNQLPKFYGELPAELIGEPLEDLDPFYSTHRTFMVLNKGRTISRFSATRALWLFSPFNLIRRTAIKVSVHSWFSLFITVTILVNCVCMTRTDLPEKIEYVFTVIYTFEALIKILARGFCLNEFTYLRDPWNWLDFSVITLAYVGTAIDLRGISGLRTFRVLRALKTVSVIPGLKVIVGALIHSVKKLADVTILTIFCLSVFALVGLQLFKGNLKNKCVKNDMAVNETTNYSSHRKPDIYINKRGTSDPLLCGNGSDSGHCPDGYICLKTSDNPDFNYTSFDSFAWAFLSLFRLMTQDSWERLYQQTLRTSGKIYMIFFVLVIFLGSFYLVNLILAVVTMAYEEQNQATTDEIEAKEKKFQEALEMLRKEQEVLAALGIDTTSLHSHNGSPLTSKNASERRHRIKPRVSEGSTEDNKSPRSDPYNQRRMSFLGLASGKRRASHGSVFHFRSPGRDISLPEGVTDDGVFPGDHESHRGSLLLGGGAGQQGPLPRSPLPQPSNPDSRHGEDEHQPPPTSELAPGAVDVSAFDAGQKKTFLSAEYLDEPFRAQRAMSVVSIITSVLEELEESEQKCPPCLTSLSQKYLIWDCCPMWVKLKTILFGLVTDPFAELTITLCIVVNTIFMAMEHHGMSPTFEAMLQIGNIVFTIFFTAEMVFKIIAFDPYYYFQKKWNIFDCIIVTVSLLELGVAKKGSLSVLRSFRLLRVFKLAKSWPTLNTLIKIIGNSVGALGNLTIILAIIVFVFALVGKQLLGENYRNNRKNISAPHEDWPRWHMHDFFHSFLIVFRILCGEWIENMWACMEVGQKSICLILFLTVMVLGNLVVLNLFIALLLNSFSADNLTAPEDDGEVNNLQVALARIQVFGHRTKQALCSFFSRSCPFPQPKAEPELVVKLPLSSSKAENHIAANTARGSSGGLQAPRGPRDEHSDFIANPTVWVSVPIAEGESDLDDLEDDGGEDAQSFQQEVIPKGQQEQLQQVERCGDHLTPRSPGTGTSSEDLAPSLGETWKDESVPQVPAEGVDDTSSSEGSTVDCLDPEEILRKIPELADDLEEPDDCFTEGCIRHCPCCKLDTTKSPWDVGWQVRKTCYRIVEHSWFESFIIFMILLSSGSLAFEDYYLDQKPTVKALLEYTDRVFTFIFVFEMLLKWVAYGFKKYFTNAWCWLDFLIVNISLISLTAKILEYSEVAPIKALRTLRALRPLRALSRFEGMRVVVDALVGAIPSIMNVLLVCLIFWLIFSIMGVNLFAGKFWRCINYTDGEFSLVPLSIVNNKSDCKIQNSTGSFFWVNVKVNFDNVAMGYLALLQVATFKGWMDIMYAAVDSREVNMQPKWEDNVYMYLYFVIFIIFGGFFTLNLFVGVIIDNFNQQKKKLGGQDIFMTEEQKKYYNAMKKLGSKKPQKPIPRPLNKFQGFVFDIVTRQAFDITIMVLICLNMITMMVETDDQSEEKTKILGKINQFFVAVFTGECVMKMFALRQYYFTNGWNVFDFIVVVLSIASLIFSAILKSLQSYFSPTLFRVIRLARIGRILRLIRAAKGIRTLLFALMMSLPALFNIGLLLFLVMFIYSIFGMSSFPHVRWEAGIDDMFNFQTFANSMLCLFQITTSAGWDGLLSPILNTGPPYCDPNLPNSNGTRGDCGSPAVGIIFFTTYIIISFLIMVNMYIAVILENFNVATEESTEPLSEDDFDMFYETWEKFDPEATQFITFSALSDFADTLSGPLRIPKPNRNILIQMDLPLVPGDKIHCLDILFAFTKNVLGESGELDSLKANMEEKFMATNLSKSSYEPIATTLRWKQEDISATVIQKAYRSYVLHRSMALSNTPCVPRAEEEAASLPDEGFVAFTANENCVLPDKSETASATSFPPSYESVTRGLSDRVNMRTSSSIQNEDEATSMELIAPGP
(Patch clamp records ionic current or voltage across a cell membrane.)

As usually defined, the IC50 is the point on the concentration scale where inhibition reaches its midpoint. In the case of `C[C@@H]1C(=O)NCCN1C(=O)NC(c1ccc(C(F)(F)F)nc1)c1ccc(F)c(Cl)c1F` (single isomer, unassigned) [Example 15A], the IC50 is 4.74 nM. In the case of `C[C@@H]1C(=O)NCCN1C(=O)NC(c1cnc(C2CC2)c(Cl)c1)c1ccc(F)c(Cl)c1F` (single isomer, unassigned) [Example 27B, (2R)-N-((S or R)-(3-chloro-2,4-difluorophenyl)(5-chloro-6-cyclopropylpyridin-3-yl)methyl)-2-methyl-3-oxopiperazine-1-carboxamide] it was 2.88 nM; in that of `C[C@@H]1C(=O)NCCN1C(=O)NC(c1ccc(F)c(Cl)c1)c1cc(C(F)(F)F)nn1C` (single isomer, unassigned) [Example 86A, (2R)-N-((R or S)-(3-chloro-4-fluoro-phenyl)(1-methyl-3-(trifluoro-methyl)-1H-pyrazol-5-yl)methyl)-2-methyl-3-oxopiperazine-1-carboxamide], 3.59 nM.

With `C[C@@H]1C(=O)NCCN1C(=O)NC(c1ccc(C(F)(F)F)nc1)c1ccc(Cl)c(C(F)(F)F)n1` (single isomer, unassigned) [Example 81A, (2R)-N-((R or S)-(5-chloro-6-(trifluoromethyl)pyridin-2-yl)(6-(trifluoro-methyl)pyridin-3-yl)methyl)-2-methyl-3-oxopiperazine-1-carboxamide], the IC50 is 8 nM. Turning to `C[C@@H]1C(=O)NCCN1C(=O)NC(c1ccc(OC(F)(F)F)c(Cl)c1)c1cnn(C(F)(F)F)c1` (single isomer, unassigned) [Example 63B, (2R)-N-((S or R)-(3-chloro-4-(trifluoro-methoxy)phenyl)(1-(trifluoromethyl)-1H-pyrazol-4-yl)methyl)-2-methyl-3-oxopiperazine-1-carboxamide], the IC50 stood at 13.5 nM.

As to `C[C@@H]1C(=O)NCCN1C(=O)NC(c1cnc(OCC(F)(F)F)c(F)c1)c1ccc(F)c(C(F)(F)F)n1` (single isomer, unassigned) [Example 48A], the half-inhibitory concentration (IC50) amounted to 4.78 nM. Consider `C[C@@H]1C(=O)NCCN1C(=O)NC(c1ccc(Cl)cc1)c1ccc(C(F)(F)F)nc1` (single isomer, unassigned) [Example 17B, (2R)-N-((S or R)-(4-chlorophenyl)(6-(trifluoromethyl)pyridin-3-yl)methyl)-2-methyl-3-oxopiperazine-1-carboxamide], for which the IC50 came out at 34.6 nM. Regarding `C[C@@H]1C(=O)NCCN1C(=O)NC(c1ccc(Cl)c(F)c1)c1ccc(F)c(C(F)(F)F)n1` (single isomer, unassigned) [Example 53B, (2R)-N-((S or R)-(4-chloro-3-fluoro-phenyl)(5-fluoro-6-(trifluoromethyl)pyridin-2-yl)methyl)-2-methyl-3-oxopiperazine-1-carboxamide], the IC50 stood at 1.38 nM. With `C[C@@H]1C(=O)NCCN1C(=O)NC(c1ccc(OCC(F)(F)F)nc1)c1cc(F)c(F)c(Cl)c1` (single isomer, unassigned) [Example 7A, (2R)-N-((R or S)-(3-chloro-4,5-difluorophenyl)(6-(2,2,2-trifluoro-ethoxy)pyridin-3-yl)methyl)-2-methyl-3-oxopiperazine-1-carboxamide], the half-maximal inhibitory concentration (IC50) is 10.8 nM. Turning to `O=C1NCCN(C(=O)NC(c2cnc(C(F)(F)F)nc2)c2ccc(F)c(Cl)c2F)C1C1CC1` (single isomer, unassigned) [Example 41B, N-((R or S)-(3-chloro-2,4-difluorophenyl)(2-(trifluoromethyl)pyrimidin-5-yl)methyl)-(S or R)-2-cyclopropyl-3-oxopiperazine-1-carboxamide], the IC50 turned out to be 4.94 nM. In the case of `C[C@@H]1C(=O)NCCN1C(=O)NC(c1ccnc(OCC(F)(F)F)c1)c1ccc(F)c(Cl)c1` (single isomer, unassigned) [Example 71B, (2R)-N-((S or R)-(3-chloro-4-fluorophenyl)(2-(2,2,2-trifluoro-ethoxy)pyridin-4-yl)methyl)-2-methyl-3-oxopiperazine-1-carboxamide] it was 2.76 nM. Take `C[C@@H]1C(=O)NCCN1C(=O)NC(c1ccc(OC2CC2)c(F)c1)c1cnc(C(F)(F)F)c(Cl)c1` (single isomer, unassigned) [Example 25B, (2R)-N-((S or R)-(5-chloro-6-(trifluoro-methyl)pyridin-3-yl)(4-cyclopropoxy-3-fluorophenyl)methyl)-2-methyl-3-oxopiperazine-1-carboxamide]: the half-maximal inhibitory concentration (IC50) was 15.8 nM. As to `C[C@@H]1C(=O)NCCN1C(=O)NC(c1ccc(C(F)(F)F)nc1)c1ccc(F)c(OC(F)(F)F)c1` (single isomer, unassigned) [Example 19A, (2R)-N-((R or S)-(4-fluoro-3-(trifluoro-methoxy)phenyl)(6-(trifluoromethyl)pyridin-3-yl)methyl)-2-methyl-3-oxopiperazine-1-carboxamide], the IC50 was 41.1 nM. As to `C[C@@H]1C(=O)NCCN1C(=O)NC(c1ccc(F)c(Cl)c1)c1ccc2nc(C(F)(F)F)cn2c1` (single isomer, unassigned) [Example 11A, (2R)-N-((R or S)-(3-chloro-4-fluoro-phenyl)(2-(trifluoro-methyl)imidazo[1,2-a]pyridin-6-yl)-methyl)-2-methyl-3-oxopiperazine-1-carboxamide], the concentration for half-maximal inhibition (IC50) was 67.4 nM.

Take `C[C@@H]1C(=O)NCCN1C(=O)NC(c1ccc(C#N)c(Cl)c1)c1cnc(C(F)(F)F)c(Cl)c1` (single isomer, unassigned) [Example 24B, (2R)-N-((S or R)-(3-chloro-4-cyano-phenyl)(5-chloro-6-(trifluoromethyl)pyridin-3-yl)methyl)-2-methyl-3-oxopiperazine-1-carboxamide]: the IC50 worked out at 2.84 nM. Next, `C[C@@H]1C(=O)NCCN1C(=O)NC(c1ccc(OC(F)(F)F)cc1)c1ccc(F)c(C(F)(F)F)n1` (single isomer, unassigned) [Example 55B, (2R)-N-((S or R)-(5-fluoro-6-(trifluoro-methyl)pyridin-2-yl)(4-(trifluoromethoxy)phenyl)methyl)-2-methyl-3-oxopiperazine-1-carboxamide]: 15.7 nM; `O=C1CN(C(=O)NC(c2ccc(OCC(F)(F)F)nc2)c2ccc(F)c(Cl)c2F)CCN1` (single isomer, unassigned) [Example 8A, N-((R or S)-(3-chloro-2,4-difluorophenyl)(6-(2,2,2-trifluoroethoxy)pyridin-3-yl)methyl)-3-oxopiperazine-1-carboxamide]: 4.46 nM; `C[C@@H]1C(=O)NCCN1C(=O)NC(c1ccc(F)c(C(F)(F)F)n1)c1ccc(F)c(Cl)c1F` (single isomer, unassigned) [Example 60B, (2R)-N-((S or R)-(3-chloro-2,4-difluoro-phenyl)(5-fluoro-6-(trifluoromethyl)pyridin-2-yl)methyl)-2-methyl-3-oxopiperazine-1-carboxamide]: 8.29 nM. In the case of `CC(C)C1C(=O)NCCN1C(=O)NC(c1ccc(C(F)(F)F)nc1)c1ccc(F)c(Cl)c1F` (single isomer, unassigned) [Example 39A, N-((R or S)-(3-chloro-2,4-difluorophenyl)(6-(trifluoromethyl)pyridin-3-yl)methyl)-(R or S)-2-isopropyl-3-oxo-piperazine-1-carboxamide] it was 2630 nM; in that of `C[C@@H]1C(=O)NCCN1C(=O)NC(c1ccc(OC2CC2)c(F)c1)c1ccc(F)c(C(F)(F)F)n1` (single isomer, unassigned) [Example 59A, (2R)-N-((R or S)-(4-cyclopropoxy-3-fluorophenyl)(5-fluoro-6-(trifluoromethyl)pyridin-2-yl)methyl)-2-methyl-3-oxopiperazine-1-carboxamide], 3.33 nM; in that of `C[C@@H]1C(=O)NCCN1C(=O)NC(c1ccc(OCC(F)(F)F)nc1)c1ccc(F)c(Cl)c1F` (single isomer, unassigned) [Example 1B], 30.9 nM. On to `O=C1NCCN(C(=O)NC(c2ccc(C(F)(F)F)nc2)c2ccc(F)c(Cl)c2F)C1C1CC1` (single isomer, unassigned) [Example 38A, N—((R or S)-(3-chloro-2,4-difluorophenyl)(6-(trifluoromethyl)pyridin-3-yl)methyl)-(R)-2-cyclopropyl-3-oxopiperazine-1-carboxamide], for which the IC50 is 559 nM. In the case of `C[C@@H]1C(=O)NCCN1C(=O)NC(c1ccc(F)c(Cl)c1)c1cnc(C(F)(F)F)c(Cl)c1` (single isomer, unassigned) [Example 26B, (2R)-N-((S or R)-(3-chloro-4-fluoro-phenyl)(5-chloro-6-(trifluoromethyl)pyridin-3-yl)methyl)-2-methyl-3-oxopiperazine-1-carboxamide] it was 3.81 nM. With `C[C@@H]1C(=O)NCCN1C(=O)NC(c1ccc(OC(F)(F)F)nc1)c1ccc(F)c(Cl)c1F` (single isomer, unassigned) [Example 4B, (2R)-N-((S or R)-(3-chloro-2,4-difluorophenyl)(6-(trifluoromethoxy)pyridin-3-yl)methyl)-2-methyl-3-oxopiperazine-1-carboxamide], the IC50 came to 25.7 nM. In the case of `C[C@@H]1C(=O)NCCN1C(=O)NC(c1ccc(C(F)(F)F)nc1)c1ccc(Cl)c(Cl)c1` (single isomer, unassigned) [Example 18A, (2R)-N-((R or S)-(3,4-dichlorophenyl)(6-(trifluoromethyl)pyridin-3-yl)methyl)-2-methyl-3-oxopiperazine-1-carboxamide] it was 3.89 nM; in that of `C[C@@H]1C(=O)NCCN1C(=O)NC(c1cnc(OCC(F)(F)F)c(F)c1)c1ccc(F)c(Cl)c1F` (single isomer, unassigned) [Example 10A, (2R)-N-((R or S)-(3-chloro-2,4-difluorophenyl)(5-fluoro-6-(2,2,2-trifluoroethoxy)pyridin-3-yl)methyl)-2-methyl-3-oxopiperazine-1-carboxamide], 1.18 nM. As for `C[C@@H]1C(=O)NCCN1C(=O)NC(c1ccc(OCC(F)(F)F)nc1)c1ccc(F)c(Cl)c1F` (single isomer, unassigned) [Example 1A], the IC50 stood at 1.09 nM.
